Patent US20110178104A1, “Anti-Heparin Compounds” (POLYMEDIX INC., priority 2010, published 2011)
Converted amounts (≈) assume the structure as drawn. Like-named read-outs stand apart in the source and are kept apart here. Starred links: 1 amine or outer side, 2 acyl side, 3 side chain; linkers in the order of their positions; H or OH if unused. Non-standard residues stand in square brackets, D forms with d. Residues, ends and D or L forms follow the SMILES beside them. *: point of attachment. NH(3-CONH2-4-OMe-phenyl) = COc1ccc(N*)cc1C(N)=O; 3Abz(6-OMe) = COc1ccc(N[*:1])cc1C(=O)[*:2]; X1 = O=C(O)COc1ccc(N[*:1])cc1C(=O)[*:2]

How the values were obtained:
tinzaparin = experiment: FXa amidolytic assay (Example 10), tinzaparin; details: read-out: Tinzap FXa EC50; tinzaparin 0.1 ug/ml; human antithrombin, bovine Factor Xa
Method: (§2) Two μl of test agent are added (range between 0.01 and 23 ug/ml) and incubated for 5 minutes at 23° C. Bovine Factor Xa was added to a final concentration of 0.636 nkat/mL and incubated for a further 10 minutes at 23° C.

UFH = experiment: FXa amidolytic assay (Example 10), UFH; details: read-out: Heparin FXa uM EC50; UFH 0.03 units/mL; human antithrombin, bovine Factor Xa
Method: as §2

fondaparinux = experiment: FXa amidolytic assay (Example 10), fondaparinux; details: for EC50: read-out: Fondap FXa EC50, fondaparinux 0.02 μg/mL, human antithrombin, bovine Factor Xa
Method: as §2

[1] = test system: isolated human erythrocytes; experiment: cells; assay type: cell-based; details: Homo sapiens, Erythrocyte, 1 h, read-out: Hemolysis EC50
In short: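 Test agent was serially diluted two-fold over 0.48–1000 µg/ml and incubated for 1 h at 37 °C with shaking, using erythrocytes from pooled human blood diluted in Tris-buffered saline pH 7.4 (0.22% stock). Hemolysis was measured as supernatant absorbance at 405 nm. A four-parameter logistic equation gave EC50, and melittin served as the positive control.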

enoxaparin = experiment: FXa amidolytic assay (Example 10), enoxaparin; details: read-out: Enox FXa EC50; enoxaparin 0.1 ug/ml; human antithrombin, bovine Factor Xa
Method: as §2

[2] = Cytotoxicity colorimetric assay, HepG2; assay type: cell-based, human; details: human, HepG2 cells, one hour in serum-free media
Method: (§1) This assay measures the bioreduction of a novel tetrazolium compound to a soluble formazan product by viable cells. HepG2 cells were seeded in 96 well plates at 3×10^4 cells/well in MEM medium with 10% fetal bovine serum (FBS) 24 hours prior to use. NIH/3T3 cells were seeded in 96 well plates at 2×10^4 cells/well in DMEM medium with 10% bovine calf serum (BCS) 24 hours prior to use. Cell monolayers were rinsed in serum-free media and incubated for one hour with test agent in serum-free media. After incubation, the media was replaced with serum supplemented media and live cells were measured using the Cell Titer 96 Aqueous […] Assay kit (Promega, Madison, Wis.). EC50 values were determined using a four parameter logistic equation: Y=Bottom+(Top-Bottom)/(1+10̂((LogEC50-X)*HillSlope)).

Unfractionated heparin = experiment: aPTT clotting assay, UFH 0.4 U/mL in plasma (Example 10); assay type: biochemical; details: unfractionated heparin 0.4 U/mL in plasma; aPTT clotting
Method: aPTT clotting Assay: Unfractionated heparin was mixed with plasma at a final concentration of 0.4 U/mL (or concentration which increases aPTT time to between 120 and 300 seconds). […] The ACL Elite Hemostasis analyzer (Beckman Coulter™) was used to add aPTT reagent (HemosIL SynthASil) to supplemented plasma. Clotting was initiated by addition of CaCl2 and time to clot was recorded.

[3] = Cytotoxicity colorimetric assay, NIH/3T3; assay type: cell-based, mouse; details: mouse, NIH/3T3 cells, one hour in serum-free media
Method: as §1

| SMILES | EC50 (tinzaparin) [nM] | EC50 (UFH) [µM] | EC50 (fondaparinux) [nM] | EC50 ([1]; human RBC, 1 hour at 37° C.) [µg/mL] | EC50 (enoxaparin) [nM] | EC50 at 1 h [2] [µg/mL] | EC50 (Unfractionated heparin) [nM] | EC50 at 1 h [3] [µg/mL] | EC50 [1] [µg/mL] | Potent LMWH-antagonists with superior anti-fondaparinux activity (summary) (fondaparinux) |
| --- | --- | --- | --- | --- | --- | --- | --- | --- | --- | --- |
| COc1cc(OC)c(C(=O)N[C@H]2CC[C@H](NC(=O)c3cc(C(=O)N[C@H]4CC[C@H](NC(=O)c5cc(C(=O)NCCN)c(OC)cc5OC)CC4)c(OC)cc3OC)CC2)cc1C(=O)NCCN [Compound 346] | 410 | 0.772 | 146 | > 1000 | 198 | > 1000 | 8810 | > 1000 | – | – |
| COc1cc(OC)c(C(=O)NC2CCC(NC(=O)c3cc(C(=O)NCCN)c(OC)cc3OC)CC2)cc1C(=O)O (stereo not shown) [Compound 347] | > 5000 | > 20 | > 10000 | – | > 5000 | > 1000 | > 10000 | > 1000 | – | – |
| COc1cc(OCC(N)=O)c(C(=O)N[C@H]2CC[C@H](NC(=O)c3cc(C(=O)NCCN(C)C)c(OCCCCCN)cc3OCCCCCN)CC2)cc1C(=O)N[C@H]1CC[C@H](NC(=O)c2cc(C(=O)NCCN(C)C)c(OCCCCCN)cc2OCCCCCN)CC1 [Compound 379] | 95 | 0.13 | > 10000 | > 1000 | 464 | > 1000 | 1620 | 650 (≈ 499 µM) | – | – |
| COc1cc(OC)c(C(=O)N[C@H]2CC[C@@H](NC(=O)c3ccc(OCCCCCNC(=N)N)cc3OCCCCCNC(=N)N)CC2)cc1C(=O)N[C@H]1CC[C@@H](NC(=O)c2ccc(OCCCCCNC(=N)N)cc2OCCCCCNC(=N)N)CC1 [Compound 380] | 71 | 0.164 | 180 | > 1000 | 89 | 81.3 (≈ 67.8 µM) | 1690 | 43.2 (≈ 36 µM) | – | – |
| COc1ccc(NC(=O)[C@H](CCCCN)NC(=O)c2cc(NC(=O)[C@H](CCCCN)NC(=O)c3cc(NC(=O)[C@H](CCCCN)NC(=O)c4cc(NC(=O)[C@H](CCCCN)NC(=O)[C@@H](N)Cc5c[nH]c6ccccc56)ccc4OC)ccc3OC)ccc2OCC(=O)O)cc1C(N)=O [Compound 352] (H-WK[3Abz(6-OMe)]K[3Abz(6-OMe)]K[X1]K-{NH(3-CONH2-4-OMe-phenyl)}) | 162 | 0.287 | 934 | > 1000 | 299 | 758 (≈ 559 µM) | 2270 | > 1000 | – | – |
| COc1cc(OC)c(C(=O)N[C@H]2CC[C@@H](NC(=O)c3cc(C(=O)N[C@H]4CC[C@@H](NC(=O)c5cc(C(=O)NCCN)c(OC)cc5OC)CC4)c(OC)cc3OC)CC2)cc1C(=O)NCCN [Compound 381] | 274 | 0.777 | 493 | 22.4 (≈ 24.4 µM) | 289 | 1130 (≈ 1230 µM) | 2690 | 1080 (≈ 1180 µM) | – | – |
| COc1ccc(NC(=O)[C@H](CCCCN)NC(=O)c2cc(NC(=O)[C@H](CCCCN)NC(=O)c3cc(NC(=O)[C@H](CCCCN)NC(=O)c4cc(NC(=O)[C@H](CCCCN)NC(=O)Cc5ccccc5)ccc4OC)ccc3OC)ccc2OC)cc1C(N)=O [Compound 355] | 67 | 0.147 | 800 | – | 95 | 133 (≈ 107 µM) | 1410 | 52 (≈ 41.8 µM) | > 1000 | – |
| COc1ccc(NC(=O)[C@H](CCCCN)NC(=O)c2cc(NC(=O)[C@H](CCCCN)NC(=O)c3cc(NC(=O)[C@H](CCCCN)NC(=O)c4cc(NC(=O)[C@H](CCCCN)NC(=O)c5ccccc5)ccc4OC)ccc3OC)ccc2OCC(=O)O)cc1C(N)=O [Compound 354] | 109 | 0.214 | 202 | – | 117 | > 1000 | 2200 | > 1000 | > 1000 | superior anti-fondaparinux activity |
| COc1cc(OC)c(C(=O)N[C@H]2CC[C@H](NC(=O)c3cncc(C(=O)N[C@H]4CC[C@H](NC(=O)c5cc(C(=O)NCCN)c(OC)cc5OC)CC4)c3)CC2)cc1C(=O)NCCN [Compound 400] | 1180 | – | 5510 | > 1000 | 1220 | 1300 (≈ 1520 µM) | 5090 | > 1000 | – | – |
| COc1cc(OC)c(C(=O)Nc2ccc(NC(=O)c3ccc(OCCCCCN)cc3OCCCCCN)cc2)cc1C(=O)Nc1ccc(NC(=O)c2ccc(OCCCCCN)cc2OCCCCCN)cc1 [Compound 411] | 123 | – | 61 | > 1000 | 96 | 590 (≈ 579 µM) | 1150 | 86 (≈ 84.4 µM) | – | superior anti-fondaparinux activity |
| COC(=O)c1ccc(C(=O)N[C@@H](CCCCN)C(=O)Nc2ccc(OC)c(C(=O)N[C@@H](CCCCN)C(=O)Nc3ccc(OC)c(C(=O)N[C@@H](CCCCN)C(=O)Nc4ccc(OC)c(C(=O)N[C@@H](CCCCN)C(=O)Nc5ccc(OC)c(C(N)=O)c5)c4)c3)c2)cc1 [Compound 359] | 73 | 0.189 | 115 | > 1000 | 90 | > 1000 | 1390 | > 1000 | – | – |
| COc1cc(OC)c(C(=O)N[C@H]2CC[C@H](NC(=O)c3cc(C(=O)N[C@H]4CC[C@H](NC(=O)c5cc(C(=O)NCCN)c(OC)cc5OC)CC4)ncn3)CC2)cc1C(=O)NCCN [Compound 402] | 3180 | – | 5860 | > 1000 | 5810 | 864 (≈ 1000 µM) | 5520 | 753 (≈ 875 µM) | – | – |
| COc1cc(OC)c(C(=O)Nc2ccc(NC(=O)c3cc(C(=O)NCCN(C)C)c(OCCCCCN)cc3OCCCCCN)cc2)cc1C(=O)Nc1ccc(NC(=O)c2cc(C(=O)NCCN(C)C)c(OCCCCCN)cc2OCCCCCN)cc1 [Compound 410] | 68 | – | 41 | – | 56 | 250 (≈ 200 µM) | 640 | 97.5 (≈ 78.1 µM) | > 1000 | – |
| COc1cc(OC)c(C(=O)N[C@H]2CC[C@H](NC(=O)c3cccc(C(=O)N[C@H]4CC[C@H](NC(=O)c5cc(C(=O)NCCN)c(OC)cc5OC)CC4)c3)CC2)cc1C(=O)NCCN [Compound 398] | 2040 | – | 13900 | > 1000 | 2530 | 1090 (≈ 1270 µM) | 4770 | > 1000 | – | – |
| COc1cc(OC)c(C(=O)N[C@H]2CC[C@H](NC(=O)c3cccc(C(=O)N[C@H]4CC[C@H](NC(=O)c5cc(C(=O)NCCN)c(OC)cc5OC)CC4)n3)CC2)cc1C(=O)NCCN [Compound 397] | 955 | – | 2630 | > 1000 | 985 | 616 (≈ 717 µM) | 1150 | 408 (≈ 475 µM) | – | – |
